How the values were obtained:
[1] = target: T1, human decapping scavenger enzyme (hDcpS) (Homo sapiens, UniProt Q96C86); experiment: Susceptibility to hDcpS hydrolysis monitored by RP-HPLC; conditions: 30 µM cap analog, 30 nM hDcpS, 30 °C
T1 sequence (Q96C86 1-337): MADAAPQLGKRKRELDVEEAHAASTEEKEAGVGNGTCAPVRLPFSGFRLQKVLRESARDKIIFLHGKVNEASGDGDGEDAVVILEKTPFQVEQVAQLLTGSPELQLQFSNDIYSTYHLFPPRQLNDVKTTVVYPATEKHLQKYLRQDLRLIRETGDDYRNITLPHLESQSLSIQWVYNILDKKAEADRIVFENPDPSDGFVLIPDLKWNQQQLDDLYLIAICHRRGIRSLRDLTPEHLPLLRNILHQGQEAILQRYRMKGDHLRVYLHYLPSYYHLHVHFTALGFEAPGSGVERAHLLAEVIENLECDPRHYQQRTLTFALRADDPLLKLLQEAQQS
Method: (§2) Susceptibility of the new cap analogs to hydrolysis by human decapping scavenger enzyme (hDcpS) was investigated to assess the influence of N1 substitution on cap analogs recognition by DcpS. Caps 1–5 or m^7Gp3G (30 µM each) were incubated with hDcpS (30 nM) at 30 °C. Then, reaction samples were thermally deactivated and analyzed by RP-HPLC.
(§3) Enzymatic reactions with human DcpS were carried out in 50 mM Tris/HCl, 200 mM KCl, 0.5 mM EDTA, pH = 7.6 buffer at 30 °C for 30 nM hDcpS and 30 µM of a cap analog studied. As a control, m^7Gp3G was used. Cap analogs concentration was determined spectrophotometrically (absorption coefficient used in calculations is equal to 22,600 mL/mmol/cm in 0.1 M phosphate buffer pH = 7.0). For 1 and m^7Gp3G, 3 independent experiments were performed. Aliquots were terminated by heat inactivation for 3 min at 95 °C. Samples were analyzed with RP-HPLC using method E.
(§4) Data are average of triplicate experiments ± SD.

murine eIF4E = murine eIF4E (Mus musculus, UniProt P63073); experiment: Pyrene fluorescence intensity competition binding assay for eIF4E
murine eIF4E, sequence (P63073 whole entry): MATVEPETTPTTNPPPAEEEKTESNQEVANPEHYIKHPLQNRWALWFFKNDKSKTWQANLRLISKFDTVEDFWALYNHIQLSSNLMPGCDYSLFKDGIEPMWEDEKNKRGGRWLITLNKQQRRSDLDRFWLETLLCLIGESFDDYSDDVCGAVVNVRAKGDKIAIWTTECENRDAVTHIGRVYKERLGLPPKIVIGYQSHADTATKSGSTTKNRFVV
Text: The prime role of the mRNA cap is to participate in initiation of translation through binding with eIF4E. Therefore, we investigated how the substitution at the N1 position influences the interaction between the cap analogs and eIF4E. To this end, we performed binding competition experiments with a Py-labeled m^7GTP analog as previously described. Thence, we determined IC50 values and calculated binding constants values (KD) for the cap analog-eIF4E complexes (Table 1, Figure 2). […] Additionally, the differences identified among studied compounds derived from triphosphate chain modifications were in agreement with previously published results.
A previously described pyrene fluorescence intensity binding method was used to determine the dissociation constants of the nonfluorescent ligands binding to the eIF4E protein in a competitive binding experiment. The experiments were performed in 96-well, black, non-binding assay plates with point fluorescence measurements (λexc = 345 nm; λem = 378 nm). Each well contained a buffer (50 mM Hepes/KOH pH = 7.2 containing 100 mM KCl and 0.5 mM EDTA), 10 nM of pyrene-labeled 7-methylguanosine pentaphosphate probe, ligand 1–5 or m^7Gp3G (half-log dilutions of Clig from 100 μM to 0.003 μM), and 75 nM of eIF4E protein. The reagents and added protein were pre-incubated for 15 min at 30 °C and stirred at 300 rpm. Measurements were performed in three different temperatures: At 20, 30, and 37 °C. A previously derived Equation (1) was used to calculate the inhibition (dissociation) constant KI of a competitive ligand according to the dependence of the recorded fluorescence intensity on the inhibitor concentration. (1) KI=IC50−[Pt]+[PL]50(KD/[L]50+1)/[L]50/KD+[P]0/KD+1 where IC50 is the inhibitor concentration required to replace 50% of the fluorescent probe from the protein binding site, [Pt] is the total protein concentration, [PL]50 is the protein–probe complex concentration at 50% inhibition, [L]50 is the free probe concentration at 50% inhibition, and [P]0 is the free protein concentration without inhibition.
In order to determine IC50 value, we used Origin® 2017 (OriginLab Corp., Northampton, MA, USA) software to fit the curve described by the derived Equation (2) to the measured fluorescence intensity values for various inhibitor concentrations. (2) F=F0Fmax−F0/1+10^(log(IC50)−log(Clig.))p where Clig. is the concentration of non-fluorescent ligand.
Figure 2 Dose–response curves for compounds 1–5 and m^7Gp3G plotted from a competition binding assay for meIF4E [16]. eIF4E (75 nM) and a pyrene-labeled fluorescent probe (10 nM) were incubated at 30 °C with the indicated concentrations of the investigated compounds (1–5 or m^7Gp3G as a reference).

[2] = target: T1, human decapping scavenger enzyme (hDcpS); experiment: in vitro; conditions: pH 7.6
Method: as §2, §3, §4

murine eIF4E (meIF4E) = murine eIF4E (meIF4E) (Mus musculus, UniProt P63073); experiment: Microscale thermophoresis direct binding to meIF4E; conditions: MST, 25 nM probe, 25 °C, 1:1 binding model, triplicate
murine eIF4E (meIF4E), sequence (P63073 whole entry): as above
Method: To this end, fluorescent probes (25 nM) were mixed with increasing concentrations of meIF4E and microscale thermophoresis was measured for each sample (Figure S5). Baseline corrected normalized fluorescences (ΔFn) determined from the MST traces were plotted as a function of protein concentration. KD values could then be calculated from the resulting binding curves (Figure 5). […] These findings align with those determined for the parent compounds 1, 2, and 3 (Table 1).
Probes 6, 11, and 12 were dissolved in MST buffer (50 mM HEPES/KOH, 100 mM KCl, 0.5 mM EDTA, pH = 7.2, 0.2% Tween 20) to obtain a 50 nM stock solution. Murine eIF4E (meIF4E) was dissolved in MST buffer in a 16 point, 1:1 dilution series in a 10.0 µM to 0.30 nM concentration range. Equal volumes (10 µL) of meIF4E and probe were combined to obtain the following assay concentrations: 25 nM probe and 5.0 µM to 0.15 nM meIF4E for the assay.
(§1) For both assays, samples were loaded into standard Monolith™ NT.115 Series Capillares (NanoTemper Technologies, Cambridge, MA, USA). MST measurements were performed on Monolith NT.115 instrument (NanoTemper Technologies, Cambridge, MA, USA) at 25 °C. Measurements parameters were set as follows: 40% LED Blue power, Medium MST power. Data were obtained for three independently pipetted measurements and analyzed in PALMIST v. 1.4.4 [36] using a 1:1 binding model to calculate KD, using the signal from an MST-on time of 20 s (for eIF4E assay: Cold region start, −3 s; hot region start, 0.5 s; for DcpS assay: Cold region start, −3 s; hot region start 19 s), confidence intervals were calculated with error surface projection (ESP) method. Plots presented were generated using GUSSI v. 1.4.2 [37].
Figure 5 Direct binding microscale thermophoresis (MST) experiments with eIF4E and DcpS. (a) MST binding curves for probes 6, 11, 12, and meIF4E. Probe 6, 11, or 12 (50 nM) was mixed with a half-log dilution series of an meIF4E solution (10 µM–0.30 nM). (b) MST binding curves for probes 11 and 12 and DcpS. […] Data were analyzed in Palmist v. […]

human DcpS (hDcpS) = target: T2, human DcpS (hDcpS) (Homo sapiens, UniProt Q96C86); experiment: Microscale thermophoresis direct binding to hDcpS; conditions: for Kd: MST, 25 nM probe, 25 °C, 1:1 binding model, triplicate
T2 construct: made in house
T2 sequence (Q96C86 1-337): T1 sequence (Q96C86 1-337)
Method: With these promising results in mind, we decided to use the same approach for studying DcpS enzyme. For this purpose, cleavage-resistant probes 11 and 12 were used. Both probes were high-affinity ligands for DcpS. […] This is in agreement with previously reported data on the influence of triphosphate chain modifications on cap-DcpS interaction.
Probes 11 and 12 were dissolved in MST buffer (50 mM HEPES/KOH, 100 mM KCl, 0.5 mM EDTA, pH = 7.2, 0.2% Tween 20) to obtain a 50 nM stock solution. In study of a probe 11, human DcpS (hDcpS) was dissolved in MST buffer in a 16 point 1:1 dilution series in a 2.0 µM to 0.061 nM concentration range. Equal volumes (10 µL) of hDcpS and the probe were mixed together to obtain the following assay concentrations: 25 nM probe and 1.0 µM to 0.030 nM hDcpS. In study of a probe 12, hDcpS was dissolved in MST buffer in a 16 point 2:1 dilution series in a 700 nM to 1.60 nM concentration range. Equal volumes (10 µL) of hDcpS and the probe were mixed together to obtain the following assay concentrations: 25 nM probe and 350 nM to 0.80 nM hDcpS.
as §1
Figure 5 Direct binding microscale thermophoresis (MST) experiments with eIF4E and DcpS. (a) MST binding curves for probes 6, 11, 12, and meIF4E. […] Data were analyzed in Palmist v. […]

[3] = 30 °C, 75 nM eIF4E, 10 nM pyrene-labeled probe, triplicate
[4] = 30 °C, calculated from IC50 values

Compound | Susceptibility to hydrolysis by hDcpS ([1]; RP-HPLC) | IC50 (murine eIF4E; 20 °C) [µM] | Kd (murine eIF4E; 20 °C, calculated from IC50) [µM] | IC50 (murine eIF4E; [3]) [µM] | Kd (murine eIF4E; [4]) [µM] | IC50 (murine eIF4E; 37 °C) [µM] | Kd (murine eIF4E; 37 °C, calculated from IC50) [µM] | half-life at 30 µM [2] [min] | Kd (murine eIF4E (meIF4E)) [µM] | Kd (human DcpS (hDcpS)) [µM] | Fold greater affinity for DcpS than probe 11 (human DcpS (hDcpS); MST KD ratio) [fold] | Half-life [1] [min]
C#CCn1c(N)nc2c(ncn2C2OC(COP(=O)(O)OP(=O)([O-])OP(=O)(O)OCC3OC(n4c[n+](C)c5c(O)nc(N)nc54)C(O)C3O)C(O)C2O)c1=O (stereo not drawn) [Compound 1, P1-(N1-Propargylguanosin-5′-yl) P3-(N7-methylguanosin-5′-yl) triphosphate] | efficiently cleaved by DcpS but more slowly than m^7Gp3G | 2.92 ± 0.19 | 0.268 ± 0.04 | 3.57 ± 0.25 | 0.305 ± 0.045 | 3.68 ± 0.7 | 0.371 ± 0.082 | 15.8 |  |  |  | 
C#CCn1c(N)nc2c(ncn2C2OC(COP(=O)([O-])OP(=O)(O)CP(=O)(O)OCC3OC(n4c[n+](C)c5c(O)nc(N)nc54)C(O)C3O)C(O)C2O)c1=O (stereo not drawn) [Compound 2, P1-(N7-Methylguanosin-5′-yl) P3-(N1-propargylguanosin-5′-yl) 1,2-methylenetriphosphate] |  | 6.57 ± 0.49 | 0.61 ± 0.094 | 6.37 ± 0.73 | 0.548 ± 0.095 | 8.2 ± 0.79 | 0.836 ± 0.121 |  |  |  |  | 
C#CCn1c(N)nc2c(ncn2C2OC(COP(=O)([O-])OP(=O)(O)NP(=O)(O)OCC3OC(n4c[n+](C)c5c(O)nc(N)nc54)C(O)C3O)C(O)C2O)c1=O (stereo not drawn) [Compound 3, P1-(N7-Methylguanosin-5′-yl) P3-(N1-propargylguanosin-5′-yl) 1,2-imidotriphosphate] |  | 3.06 ± 0.16 | 0.281 ± 0.041 | 3.48 ± 0.22 | 0.297 ± 0.043 | 3.75 ± 0.89 | 0.379 ± 0.1 |  |  |  |  | 
C#CCn1c(N)nc2c(ncn2C2OC(COP(=O)(O)CP(=O)(O)OP(=O)([O-])OCC3OC(n4c[n+](C)c5c(O)nc(N)nc54)C(O)C3O)C(O)C2O)c1=O (stereo not drawn) [Compound 4, P1-(N7-Methylguanosin-5′-yl) P3-(N1-propargylguanosin-5′-yl) 2,3-methylenetriphosphate] |  | 5.51 ± 0.33 | 0.511 ± 0.075 | 6.04 ± 0.46 | 0.52 ± 0.078 | 8.1 ± 0.61 | 0.826 ± 0.109 |  |  |  |  | 
C#CCn1c(N)nc2c(ncn2C2OC(COP(=O)(O)NP(=O)(O)OP(=O)([O-])OCC3OC(n4c[n+](C)c5c(O)nc(N)nc54)C(O)C3O)C(O)C2O)c1=O (stereo not drawn) [Compound 5, P1-(N7-Methylguanosin-5′-yl) P3-(N1-propargylguanosin-5′-yl) 2,3-imidotriphosphate] |  | 1.85 ± 0.15 | 0.168 ± 0.026 | 2.16 ± 0.2 | 0.182 ± 0.029 | 3.21 ± 0.33 | 0.324 ± 0.048 |  |  |  |  | 
C[n+]1cn([C@@H]2O[C@H](COP(=O)(O)OP(=O)([O-])OP(=O)(O)OC[C@H]3O[C@@H](n4cnc5c(=O)n(Cc6cn(CCCNC(=O)c7ccc8c(c7)C(=O)OC87c8ccc(O)cc8Oc8cc(O)ccc87)nn6)c(N)nc54)[C@H](O)[C@@H]3O)[C@@H](O)[C@H]2O)c2nc(N)nc(O)c21 [Compound 6, m^7Gp3G-N1-5FAM] |  |  |  |  |  |  |  |  | 0.05 |  |  | 
C[n+]1cn([C@@H]2O[C@H](COP(=O)(O)CP(=O)(O)OP(=O)([O-])OC[C@H]3O[C@@H](n4cnc5c(=O)n(Cc6cn(CCCNC(=O)c7ccc8c(c7)C(=O)OC87c8ccc(O)cc8Oc8cc(O)ccc87)nn6)c(N)nc54)[C@H](O)[C@@H]3O)[C@@H](O)[C@H]2O)c2nc(N)nc(O)c21 [Compound 11, m^7GpCH2ppG-N1-5FAM] |  |  |  |  |  |  |  |  | 0.201 | 0.038 |  | 
C[n+]1cn([C@@H]2O[C@H](COP(=O)(O)NP(=O)(O)OP(=O)([O-])OC[C@H]3O[C@@H](n4cnc5c(=O)n(Cc6cn(CCCNC(=O)c7ccc8c(c7)C(=O)OC87c8ccc(O)cc8Oc8cc(O)ccc87)nn6)c(N)nc54)[C@H](O)[C@@H]3O)[C@@H](O)[C@H]2O)c2nc(N)nc(O)c21 [Compound 12, m^7GpNHppG-N1-5FAM] |  |  |  |  |  |  |  |  | 0.053 | 0.014 | 2.5 | 
Cn1c[n+]([C@@H]2O[C@H](COP(=O)(O)OP(=O)(O)OP(=O)(O)OC[C@H]3O[C@@H](n4cnc5c(=O)[nH]c(N)nc54)[C@H](O)[C@@H]3O)[C@@H](O)[C@H]2O)c2nc(N)[nH]c(=O)c21 [m^7Gp3G, reference compound] |  | 3.04 ± 0.26 | 0.279 ± 0.045 | 3.46 ± 0.3 | 0.294 ± 0.046 | 3.31 ± 0.87 | 0.334 ± 0.096 |  |  |  |  | 5.703
